Test [1] deals with enzyme of the present invention (KDNase). The test is described as follows: Inhibition and activation of the enzyme, 4-MU-KDN method. The format is biochemical, Sphingobacterium mOL12-4s. The note with it: for effect on the activity of the enzyme: added at 1 mM. The method, then: Specifically, 1.4 nmol of 4-MU-KDN was added to an enzyme solution prepared by dissolving the enzyme in 20 μl of 0.1M Tris-acetate buffer (pH 6.0)/0.1M NaCl to perform a reaction at 25° C. for 30 minutes. After the reaction, an aliquot of the reaction solution (20 μl) was mixed with 2.5 ml of 85 mM glycine-carbonate buffer (pH 9.3) to measure the fluorescent strength (exciting wavelength: 365 nm, measuring wavelength: 450 nm). For the measurement of the fluorescent strength, reference was made to Biochemistry, Vol. 18, No. 13, pp. 2783-2787. A fluorescent strength, which was obtained when the reaction was performed in the same manner as described above except that the enzyme was not added, was used as control. An amount of the enzyme, which hydrolyzed 1 nmol of 4-MU-KDN per 1 minute at 25° C., was defined as 1 unit.
In order to investigate influences of, for example, inorganic ions and EDTA (ethylenediaminetetraacetic acid) on the activity of the enzyme of the present invention, these compounds were added to the reaction solution to perform the enzyme reaction in accordance with the 4-MU-KDN method.
The influence of the ionic strength on the enzyme of the present invention was investigated.
2,3-Dehydro-2-deoxy-N-acetylneuraminic acid is a specific inhibitor for known sialidase which cleaves the ketosidic linkage formed by N-acylneuraminic acid.

Test [2] shares this test system. The test can be described thus: Substrate specificity: cleavage of ketosidic linkage, detected by thin layer chromatography. As to conditions: for Presence or absence of cleavage: substrate corresponding to 5 μg KDN, Neu5Ac or Neu5Gc, enzyme 80 milliunits, 25° C., 20 hours, pH 6.0, 0.1M NaCl. Details: key to Presence or absence of cleavage: Those in which KDN, Neu5Ac, or Neu5Gc was liberated are indicated by "+"; those in which KDN, Neu5Ac, or Neu5Gc was not liberated at all are indicated by "-". The format is biochemical, Sphingobacterium mOL12-4s. The method, then: The reactivity of the enzyme of the present invention was investigated for various KDN-containing complex carbohydrates and carbohydrates and sialic acid-containing complex carbohydrates and carbohydrates.
Each of the foregoing complex carbohydrates or carbohydrates containing KDN or sialic acid, which corresponded to 5 μg of KDN or N-acetylneuraminicacid (Neu5Ac) or N-glycolylneuraminic acid (Neu5Gc), was allowed to coexist with the enzyme of the present invention (80 milliunits) at 25° C. for 20 hours in 10 μl of 0.1M Tris-acetate buffer (pH 6.0) containing 0.1M NaCl.
The reaction solution was spotted on a plate for silica gel thin layer chromatography (produced by Merck), and developed for 7 hours with 1-propanol: 25% aqueous ammonia: water=6:1:2.5 (volume ratio). After the development, the plate was dried, on which 10% sulfuric acid ethanol solution was sprayed. The plate was heated at 120° C. to cause color development for the complex carbohydrates or carbohydrates and liberated KDN, Neu5Ac, or Neu5Gc. A control was provided, in which the reaction was performed without addition of the enzyme. Those in which KDN, Neu5Ac, or Neu5Gc was liberated are indicated by "+", and those in which KDN, Neu5Ac, or Neu5Gc was not liberated at all are indicated by "-".

Test [3] shares this test system. The test is described as follows: Measurement of Michaelis constant and Vmax with 4-MU-KDN as substrate. The note with it: 25° C.; for Vmax: pH 6.0. It counts as biochemical, Sphingobacterium mOL12-4s. The method, then: The Michaelis constant (Km) and the maximum enzyme reaction velocity (Vmax) were determined on condition that 4-methylumbelliferyl KDN (4-MU-KDN) was used as a substrate for the enzyme of the present invention. The enzyme (32 milliunits) and the substrate (4-MU-KDN, 6.7 μM) were reacted at 25° C. in 216 μl of a reaction solution (0.1M Tris-acetate buffer (pH 6.0)/0.1M NaCl containing 0.1 mg/ml of bovine serum albumin). As a result, 4-methylumbelliferone (4-MU) was liberated linearly within 1 hour.
At this enzyme concentration, initial reaction velocities were measured by performing the reaction at 25° C. for 30 minutes in the same reaction solution as described above while variously changing the concentration of 4-MU-KDN in a range of 21 to 167 μM. A Lineweaver-Burkplot was obtained, and thus the Michaelis constant was calculated.

For test [4], the system named is Sphingobacterium mOL12-4s. The test is described as follows: Induction of KDNase in Sphingobacterium mOL12-4s. As to conditions: for Number of cells: 0.1% (w/v) added substance in M9 liquid medium, 6.1×10^10 cells inoculated; for Number of cells / KDNase activity per cells / Number of cells, ratio to before addition (value in []) / KDNase activity: 25° C., 24 hours; for Number of cells, ratio to before addition (value in []): before addition = 1; for KDNase activity: supernatant of disrupted cells; for fold induction at 1000 µg/mL: 24 h. The method, then: Bacterial cells (4.0×10^8) of Sphingobacterium mOL12-4s were inoculated into 40 ml of M9 liquid medium containing 1% (w/v) casein hydrolysate (casamino acid, produced by Gibco) and 1% (w/v) glucose (Glc), and cultivated at 25° C. for 44 hours. Microbial cells (bacterial cells) at the growth phase were collected, and washed twice with M9 liquid medium. The microbial cells (6.1×10^10 cells) were inoculated into 2.0 ml of M9 liquid medium containing 0.1% (w/v) crude KDN-OS, KDN-OS, KDN, Neu5Ac, acid hydrolysate of colominic acid (oligo-Neu5Ac; Kitazume, S. et al., Anal. Biochem., 202, 25-34 (1992)), or Glc, and incubated at 25° C. for 24 hours to measure the number of growable cells and the KDNase activity. The number of cells was determined by diluting each incubated cell cultivation liquid to inoculate an obtained diluted solution into an LB agar medium plate, and counting a number of grown colonies (Kitajima, K. et al., J. Biol. Chem., 269, 21415-21419). In order to measure the KDNase activity of the cells, the cells were collected by means of centrifugation at 5,000 rpm or 1,500× g for 10 minutes. The collected cells were suspended in 0.5 ml of 100 mM Tris-acetate buffer (pH 6.0) containing 100 mM NaCl, and disrupted by means of ultrasonication (50 watts, 1 minute). The disrupted preparation was centrifuged at 10,000 rpm or 6,000× g for 10 minutes to subsequently obtain a supernatant for which the KDNase activity was measured. The numerical value in [] in Table 1 indicates a ratio provided that the activity before the addition is regarded as 1.

The mark [5] stands for this setting: read-out: KDNase activity per cells, ratio to before addition (value in []).
Where [6] appears, read: read-out: KDNase activity, ratio to before addition (value in []).

Consider 23 molecules from patent US5834288A, “KDN-specific deminoneuraminidase from Sphingobacterium multivorum” (Seikagaku Corporation, priority 1994, dated 1998).

Entries after “also recorded” stand apart in the source; their conditions may differ. Like-named read-outs stand apart in the source and are kept apart here.

Consider `CC(=O)N[C@H]1[C@H]([C@H](O)[C@H](O)CO)OC(C(=O)O)=C[C@@H]1O` [2,3-dehydro-2-deoxy-N-acetylneuraminic acid], for which, in test [1] (concentration not given), the “inhibition of the enzyme” value is “not inhibited”.

`Cc1cc(=O)oc2cc(OC3(C(=O)O)C[C@H](O)[C@@H](O)[C@H]([C@H](O)[C@H](O)CO)O3)ccc12` (stereo partly drawn) [4-MU-KDN, 4-methylumbelliferyl KDN]: the “action of the enzyme on the ketosidic linkage (in words)” value in test [2] is on record as “acts on”; in test [2] (listed as 4-methylumbelliferyl KDN), “can also act on”. Also, the “Presence or absence of cleavage” value in test [2] is listed as “+”. Besides, the figures for the Vmax in test [3] and in test [3] (enzyme 32 milliunits in 216 μl) were 7.4 mM/min/mg protein and 0.19 µM/min, respectively. Besides, the Michaelis constant (Km) in test [3] (pH 6.0, 0.1M NaCl, 0.1 mg/ml BSA, Lineweaver-Burk plot, 21 to 167 μM substrate) turned out to be 19 µM.

For `CC(=O)NC1C(O)CC(Oc2ccc3c(C)cc(=O)oc3c2)(C(=O)O)OC1C(O)C(O)CO` (stereo not drawn) [4-MU-Neu5Ac, 4-Methylumbelliferyl Neu5Ac], the “Presence or absence of cleavage” value in test [2] is “-”.

Regarding `O=C(O)CN(CCN(CC(=O)O)CC(=O)O)CC(=O)O` [EDTA, ethylenediaminetetraacetic acid], the “effect on the activity of the enzyme” value in test [1] is reported as “not affected”.

With `O=C[C@H](O)[C@@H](O)[C@H](O)[C@H](O)CO` [Glc, glucose], the Number of cells in test [4] is listed as 1.7 × 10^12. For the same molecule, in test [4] (0.1% (w/v)), the “KDNase activity per cells” value is 0.47 milliunit/10^10 cells; the “Number of cells, ratio to before addition (value in [])” value (shortened to “Number of cells, ratio”) turned out to be 28; the KDNase activity came to 80 milliunit. Also, in test [4] (setting [5]), the fold induction at 1000 µg/mL turned out to be 0.14. The fold induction at 1000 µg/mL in test [4] (setting [6]) is 4.

Regarding `O=C(O)C1(O)CC(O)C(O)C(C(O)C(CO)OC2(C(=O)O)CC(O)C(O)C(C(O)C(O)CO)O2)O1` (stereo not drawn) [KDN dimer, KDNα2→8KDN], the “Presence or absence of cleavage” value in test [2] is recorded as “+”.

As for `O=C(O)C1(O)C[C@H](O)[C@@H](O)[C@H]([C@H](O)[C@H](O)CO)O1` (stereo partly drawn) [KDN, 3-deoxy-D-glycero-D-galacto-nonulosonic acid], the “inhibition of the enzyme” value in test [1] (3 mM) is recorded as “inhibited”. Further, the “inhibition of the enzyme” value in test [1] (concentration not given) is given as “inhibited”. Further, in test [4] (0.1% (w/v)), the “induction of KDNase (in words)” value is listed as “induced KDNase”; the “KDNase activity per cells” value is listed as 11 milliunit/10^10 cells; the “Number of cells, ratio” value came out at 0.59; the KDNase activity came to 38 milliunit. In addition, the Number of cells in test [4] was 3.6 × 10^10. Also, the fold induction at 1000 µg/mL in test [4] (setting [5]) was 3.3. Moreover, the fold induction at 1000 µg/mL in test [4] (setting [6]) worked out at 1.9.

Take `[Cl-].[Na+]` [NaCl]: in test [1] (50 mM or less), the “enzyme activity at low ionic strength” value is recorded as “extremely low”. Further, the “concentration giving maximum enzyme activity (ionic strength)” value in test [1] (FIG. 10) was 300 mM.

For `CC(=O)NC1C(O)CC(OC(CO)C(O)C2OC(O)(C(=O)O)CC(O)C2NC(C)=O)(C(=O)O)OC1C(O)C(O)CO` (stereo not drawn) [Neu5Ac dimer, N-acetylneuraminic acid (Neu5Ac) dimer], the “Presence or absence of cleavage” value in test [2] is “-”.

As for `CC(=O)N[C@H]1[C@H]([C@H](O)[C@H](O)CO)OC(O)(C(=O)O)C[C@@H]1O` (stereo partly drawn) [Neu5Ac, N-acetylneuraminic acid], the Number of cells in test [4] was 2.5 × 10^10. For the same molecule, in test [4] (0.1% (w/v)), the “KDNase activity per cells” value came out at 6.0 milliunit/10^10 cells; the “Number of cells, ratio” value stood at 0.41; the KDNase activity is on record as 15 milliunit. Moreover, in test [4] (setting [5]), the fold induction at 1000 µg/mL worked out at 1.8. For the same molecule, the fold induction at 1000 µg/mL in test [4] (setting [6]) is 0.75.

Consider `CC(=O)NC(CO)C(OC1OC(CO)C(O)C(O)C1O)C(O)C(O)COC1(C(=O)O)CC(O)C(NC(C)=O)C(C(O)C(O)CO)O1` (stereo not drawn) [Neu5Acα2→6(Galβ1→3)GalNAcol], for which the “Presence or absence of cleavage” value in test [2] is listed as “-”.

`O=C(CO)NC1C(O)CC(OC(CO)C(O)C2OC(O)(C(=O)O)CC(O)C2NC(=O)CO)(C(=O)O)OC1C(O)C(O)CO` (stereo not drawn) [Neu5Gc dimer, N-glycolylneuraminic acid (Neu5Gc) dimer]: the “Presence or absence of cleavage” value in test [2] is “-”.

`[Ca+2]` [calcium ion]: the “effect on the activity of the enzyme” value in test [1] was “not affected”.

On to `CC(=O)N[C@H]1[C@H]([C@H](O)[C@H](O)CO)OC(O)(C(=O)O)C[C@@H]1O` (stereo partly drawn) [free sialic acid, sialic acid], for which the “inhibition of the enzyme” value in test [1] (concentration not given) is “not inhibited”.

Regarding `[Mg+2]` [magnesium ion], the “effect on the activity of the enzyme” value in test [1] is on record as “not affected”.

For `[Mn+2]` [manganese ion], in test [1], the “effect on the activity of the enzyme” value is on record as “not affected”.

Take `C[C@H](CCC(=O)O)[C@H]1CC[C@H]2[C@@H]3[C@H](O)C[C@@H]4C[C@H](O)CC[C@]4(C)[C@H]3C[C@H](O)[C@]12C` [sodium cholate]: the enzyme activity maintained result in test [1] (0.1%, 30 min) is listed as “about 90%”. Also, the “enzyme activity in the presence of the additive” value in test [1] (0.5%) is “substantially disappeared; also recorded: disappears”.

As for “KDNα2→3Galβ1→4Glcβ1→Cer [KDN-containing ganglioside GM3]”, the “Presence or absence of cleavage” value in test [2] was “+”.

Turning to “N-Acetylneuraminic acid lactose [Neu5Ac lactose]”, the “Presence or absence of cleavage” value in test [2] is recorded as “-”.

Regarding Triton X-100, in test [1] (concentration not given), the “inhibition of the enzyme” value is “not inhibited; also recorded: does not inhibit”.

Turning to colominic acid, the “Presence or absence of cleavage” value in test [2] was “-”.

On to “fetal bovine serum fetuin: fetal bovine serum fetuin purchased from Sigma”, for which the “Presence or absence of cleavage” value in test [2] is “-”.

Take “human transferrin: human transferrin purchased from Sigma”: the “Presence or absence of cleavage” value in test [2] was “-”.

One may read the Km as the substrate concentration at which the rate is half of its maximum.
